The target of one experiment is T1, ALK wild type (Homo sapiens, UniProt Q9UM73).
T1 construct: purchased Carna Biosciences (Japan)
The experiment is described as follows: ALK wild type standard HTRF enzyme assay. The format is biochemical. The conditions noted are these: 0.5 nM ALK wild type, 30 μM ATP, 90 minutes at room temperature, read-out: IC50 (nM) ALK_wt. On the procedure:
(§1) Wild type ALK and L1196M mutant ALK enzyme inhibition by the compounds of formula (I) was measured using an HTRF assay.
(§2) ALK wild type and ALK L1196M were acquired from Carna Biosciences (Japan). A standard HTRF kit (containing Eu-labeled TK1 antibody, XL665, biotin conjugated TK1 peptide, 5× enzymatic buffer and 1×HTRF detection buffer) were purchased from Cis-Bio International. Plates were read on an Envision multi-label plate reader (Perkin Elmer).
(§3) In both assays, the compounds were tested in 11 doses in duplicate with 3-fold dilution as the final concentrations were from 10 μM to 0.17 nM. Compound 13a was tested with lower top concentrations of 1 μM due to high potency.
The enzyme reaction mixture of ALK wild type standard HTRF assay contained 0.5 nM ALK wild type, 1 μM biotin-TK1 peptide, 30 μM ATP and 50 nM SEB in 1× enzymatic reaction buffer containing 50 mM (pH 7.0) HEPES, 5 mM MgCl2, 0.02% NaN3, 0.01% BSA, 0.1 mM Orthovanadate and 1 mM DTT at a final volume of 10 μl. The enzyme reaction was carried out at room temperature in white Proxiplate 384-Plus plate (PerkinElmer) for 90 minutes.
(§4) The detection reagents ([…]) were added at final concentrations of 2 nM antibody and 62.5 nM XL665. The plates were incubated at room temperature for 60 minutes and then read in the Envision plate reader.
(§5) The readouts were transformed into inhibition rate % by the equation of (Ratio-Min)/(Max-Min)*100%.
On the technique in general: In TR-FRET formats the signal depends on donor and acceptor labels being close together.

The next experiment has as its target T2, ALK L1196M (Homo sapiens, UniProt Q9UM73, L1196M).
T2 construct: purchased Carna Biosciences (Japan)
The experiment is described as follows: ALK L1196M standard HTRF enzyme assay. The format is biochemical. Particulars: 0.15 nM ALK L1196M, 30 μM ATP, 60 minutes at room temperature, read-out: IC50 (nM) ALK_L1196M. As to the method:
as §1, §2, §3
[…]. The enzyme reaction was carried out at room temperature in white Proxiplate 384-Plus plate (PerkinElmer) for 60 minutes.
as §4, §5

The structures appear in SMILES notation.

T1 sequence (Q9UM73 19-1620): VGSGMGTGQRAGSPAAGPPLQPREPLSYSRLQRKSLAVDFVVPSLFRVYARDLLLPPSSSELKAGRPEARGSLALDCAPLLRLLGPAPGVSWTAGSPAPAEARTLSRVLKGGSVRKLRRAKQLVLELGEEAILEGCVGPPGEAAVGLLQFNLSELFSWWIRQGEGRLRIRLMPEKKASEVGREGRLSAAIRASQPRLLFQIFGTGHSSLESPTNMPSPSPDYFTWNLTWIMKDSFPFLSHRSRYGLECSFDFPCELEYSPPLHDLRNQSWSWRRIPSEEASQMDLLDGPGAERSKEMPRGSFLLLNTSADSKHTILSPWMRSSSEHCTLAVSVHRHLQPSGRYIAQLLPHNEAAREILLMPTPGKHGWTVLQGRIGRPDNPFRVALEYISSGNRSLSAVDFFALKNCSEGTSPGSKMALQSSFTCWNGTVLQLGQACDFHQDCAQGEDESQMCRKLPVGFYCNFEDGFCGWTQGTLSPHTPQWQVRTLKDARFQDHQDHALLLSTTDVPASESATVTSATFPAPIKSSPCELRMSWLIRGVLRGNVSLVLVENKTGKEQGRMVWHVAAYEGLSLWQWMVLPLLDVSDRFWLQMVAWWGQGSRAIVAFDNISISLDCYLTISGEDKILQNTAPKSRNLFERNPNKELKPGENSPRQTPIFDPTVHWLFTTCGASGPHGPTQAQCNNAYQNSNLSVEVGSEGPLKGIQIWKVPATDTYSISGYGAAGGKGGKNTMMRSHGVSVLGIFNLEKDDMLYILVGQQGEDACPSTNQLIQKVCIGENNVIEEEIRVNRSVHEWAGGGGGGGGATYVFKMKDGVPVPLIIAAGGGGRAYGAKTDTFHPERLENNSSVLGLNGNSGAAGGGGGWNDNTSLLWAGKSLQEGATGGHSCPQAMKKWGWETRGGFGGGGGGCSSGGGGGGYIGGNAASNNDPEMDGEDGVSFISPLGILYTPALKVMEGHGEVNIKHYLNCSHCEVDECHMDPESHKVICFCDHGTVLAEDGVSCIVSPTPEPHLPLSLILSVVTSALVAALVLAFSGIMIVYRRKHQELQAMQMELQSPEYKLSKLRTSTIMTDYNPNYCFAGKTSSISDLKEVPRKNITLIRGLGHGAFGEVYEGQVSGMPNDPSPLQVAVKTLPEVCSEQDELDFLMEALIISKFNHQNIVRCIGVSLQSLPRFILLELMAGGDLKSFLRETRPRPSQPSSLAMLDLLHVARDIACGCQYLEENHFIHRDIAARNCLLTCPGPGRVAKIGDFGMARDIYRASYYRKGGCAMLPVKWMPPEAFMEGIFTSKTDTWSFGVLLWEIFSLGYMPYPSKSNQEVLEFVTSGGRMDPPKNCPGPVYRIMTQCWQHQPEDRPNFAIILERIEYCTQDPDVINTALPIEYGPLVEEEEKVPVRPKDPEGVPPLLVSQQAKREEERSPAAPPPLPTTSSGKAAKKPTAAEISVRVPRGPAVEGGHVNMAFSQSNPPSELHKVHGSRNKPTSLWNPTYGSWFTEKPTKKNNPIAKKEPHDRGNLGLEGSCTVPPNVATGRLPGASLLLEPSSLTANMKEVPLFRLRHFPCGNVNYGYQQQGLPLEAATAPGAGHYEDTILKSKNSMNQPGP
T2 sequence (Q9UM73 19-1620 L1196M): as the sequence (Q9UM73 19-1620) above, with L1178M counted along it

In the case of `CC1Oc2cc(cnc2N)-c2c(nn(C)c2C#N)N(C)C(=O)COc2ccc(F)cc21` (single isomer, unassigned) [Compound 16], the results for the IC50 at ALK wild type and on ALK L1196M were 34.8 nM and 529 nM, respectively.

Regarding `CC1Oc2cc(cnc2N)-c2c(nn(C)c2C#N)N(C)C(=O)COc2ccc(F)cc21` (single isomer, unassigned) [Compound 17], the IC50 (usually the point on the concentration scale where inhibition reaches its midpoint) on ALK wild type amounted to 7430 nM.

Turning to `CC1Oc2cc(cnc2N)-c2c(nn(C)c2C#N)NC(=O)COc2ccc(F)cc21` (stereo not shown) [Compound 15], the IC50 on ALK wild type came out at 2370 nM.

The values are drawn from patent US20160214996A1, “MACROCYCLIC COMPOUNDS FOR THE TREATMENT OF PROLIFERATIVE DISEASES” (CS Pharmasciences, Inc., priority 2013, published 2016).
